Measurements from ChEMBL document CHEMBL4622979, “Non-rigid Diarylmethyl Analogs of Baloxavir as Cap-Dependent Endonuclease Inhibitors of Influenza Viruses” (J Med Chem, 2020).
Activity calls are given as the source filed them. The calls are words filed in the database; no cut-off is given here.

What was measured:
[1] = Oral bioavailability in CD1 mouse assessed as (12aR)-12-[(R)-(3,4-Difluorophenyl)(phenyl)methyl]-7-hydroxy3,4,12,12a-tetrahydro-1H-[1,4]oxazino[3,4-c]pyrido[2,1-f ][1,2,4]-triazine-6,8-dione level at 15 mg/kg administered as single dose by LC-MS/MS analysis; assay type: ADME, organism-based; settings: in vivo
[2] = Cmax in CD1 mouse plasma assessed as (12aR)-12-[(R)-(3,4-Difluorophenyl)(phenyl)methyl]-7-hydroxy3,4,12,12a-tetrahydro-1H-[1,4]oxazino[3,4-c]pyrido[2,1-f ][1,2,4]-triazine-6,8-dione level at 15 mg/kg, po administered as single dose by LC-MS/MS analysis; assay type: ADME, organism-based; design: dose 15 mg/kg, route oral; settings: in vivo
[3] = AUClast in CD1 mouse plasma assessed as (12aR)-12-[(R)-(3,4-Difluorophenyl)(phenyl)methyl]-7-hydroxy3,4,12,12a-tetrahydro-1H-[1,4]oxazino[3,4-c]pyrido[2,1-f ][1,2,4]-triazine-6,8-dione level at 15 mg/kg, po administered as single dose by LC-MS/MS analysis; assay type: ADME, organism-based; design: dose 15 mg/kg, route oral, time 0 - last; settings: in vivo
[4] = Cmax in CD1 mouse lung assessed as (12aR)-12-[(R)-(3,4-Difluorophenyl)(phenyl)methyl]-7-hydroxy3,4,12,12a-tetrahydro-1H-[1,4]oxazino[3,4-c]pyrido[2,1-f ][1,2,4]-triazine-6,8-dione level at 15 mg/kg, po administered as single dose by LC-MS/MS analysis; assay type: ADME, organism-based; design: dose 15 mg/kg, route oral; settings: in vivo
[5] = AUClast in CD1 mouse lung assessed as (12aR)-12-[(R)-(3,4-Difluorophenyl)(phenyl)methyl]-7-hydroxy3,4,12,12a-tetrahydro-1H-[1,4]oxazino[3,4-c]pyrido[2,1-f ][1,2,4]-triazine-6,8-dione level at 15 mg/kg, po administered as single dose by LC-MS/MS analysis; assay type: ADME, organism-based; settings: in vivo
[6] = Ratio of Cmax in CD1 mouse lung to plasma assessed as (12aR)-12-[(R)-(3,4-Difluorophenyl)(phenyl)methyl]-7-hydroxy3,4,12,12a-tetrahydro-1H-[1,4]oxazino[3,4-c]pyrido[2,1-f ][1,2,4]-triazine-6,8-dione level at 15 mg/kg, po administered as single dose by LC-MS/MS analysis; assay type: ADME, organism-based; settings: other tissue
[7] = Ratio of AUClast in CD1 mouse lung to plasma assessed as (12aR)-12-[(R)-(3,4-Difluorophenyl)(phenyl)methyl]-7-hydroxy3,4,12,12a-tetrahydro-1H-[1,4]oxazino[3,4-c]pyrido[2,1-f ][1,2,4]-triazine-6,8-dione level at 15 mg/kg, po administered as single dose by LC-MS/MS analysis; assay type: ADME, organism-based; settings: other tissue
[8] = test system: HEK-293T; test: (§1) Inhibition of CEN polymerase activity in Influenza A/California/04/2009 (H1N1)pdm09 NP/PA/PB1/PB2 complex transfected in HEK293T cells co-expressing beta-galactosidase at 100 nM preincubated for 3 hrs followed by viral gene transfection and measured after 24 hrs by ONPG substrate based luciferase reporter gene mini-replicon assay relative to control; assay type: cell-based; settings: Influenza A virus (A/California/04/2009(H1N1))
[9] = test system: HEK-293T; test: as §1, with “25” for “100”; assay type: cell-based; settings: Influenza A virus (A/California/04/2009(H1N1))
[10] = test system: Influenza A virus; test: Antiviral activity against Influenza A/California/04/2009 (H1N1)pdm09 infected in MDCK cells assessed as protection against virus-induced cell death by CellTiter-Glo assay; assay type: functional, organism-based; settings: A/California/04/2009(H1N1) pdm09, MDCK
[11] = Cytotoxicity against MDCK cells assessed as reduction in cell viability by CellTiter-Glo assay; assay type: cell-based, Canis lupus familiaris; settings: dog
[12] = Selectivity index, ratio of CC50 for MDCK cells to EC50 for Influenza A/California/04/2009 (H1N1)pdm09 virus infected in MDCK cells; assay type: toxicity, cell-based; settings: dog, read-out: Ratio CC50/EC50
[13] = test system: Influenza A virus; test: Antiviral activity against Influenza A virus (A/Denmark/524/2009(H1N1)) pdm09 infected in MDCK cells assessed as protection against virus-induced cell death measured 72 to 96 hrs post-infection by CellTiter-Glo assay; assay type: functional, organism-based; settings: A/Denmark/524/2009(H1N1) pdm09, MDCK
[14] = test system: Influenza A virus H3N2; test: Antiviral activity against Influenza A virus (A/Fukui/20/2004 (H3N2)) infected in MDCK cells assessed as protection against virus-induced cell death measured 72 to 96 hrs post-infection by CellTiter-Glo assay; assay type: functional, organism-based; settings: A/Fukui/20/2004, MDCK
[15] = test system: Influenza B virus; test: Antiviral activity against Victoria lineage of Influenza B virus (B/Brisbane/60/2008) infected in MDCK cells assessed as protection against virus-induced cell death measured 72 to 96 hrs post-infection by CellTiter-Glo assay; assay type: functional, organism-based; settings: B/Brisbane/60/2008, MDCK
[16] = test system: Influenza B virus; test: Antiviral activity against Yamagata lineage of Influenza B virus (B/Florida/4/2006) infected in MDCK cells assessed as protection against virus-induced cell death measured 72 to 96 hrs post-infection by CellTiter-Glo assay; assay type: functional, organism-based; settings: B/Florida/4/2006, MDCK
[17] = Cytotoxicity against human MRC5 cells assessed as reduction in cell viability by ATP bioluminescence assay; assay type: cell-based
[18] = Cytotoxicity against human PBMC cells assessed as reduction in cell viability by ATP bioluminescence assay; assay type: cell-based
[19] = Cytotoxicity against MDCK cells assessed as reduction in cell viability by ATP bioluminescence assay; assay type: cell-based, Canis lupus familiaris; settings: dog
[20] = Cytotoxicity against human HepG2 cells assessed as reduction in cell viability measured after 24 hrs in presence of glucose by MTT assay; assay type: cell-based
[21] = Cytotoxicity against human HepG2 cells assessed as reduction in cell viability measured after 24 hrs in presence of galactose by MTT assay; assay type: cell-based
[22] = Selectivity ratio of CC50 for human HepG2 cells assessed as reduction in cell viability measured after 24 hrs in presence of glucose to CC50 for human HepG2 cells assessed as reduction in cell viability measured after 24 hrs in presence of galactose; assay type: cell-based
[23] = target: dopamine transporter (sodium-dependent dopamine transporter) (Homo sapiens, UniProt Q01959); test: Binding affinity to human dopamine transporter at 10 uM relative to control; assay type: ADME; settings: read-out: Activity
[24] = Oral bioavailability in CD1 mouse at 10 mg/kg administered as single dose by LC-MS/MS analysis; assay type: ADME, organism-based; settings: in vivo
[25] = Cmax in CD1 mouse plasma at 10 mg/kg, po administered as single dose by LC-MS/MS analysis; assay type: ADME, organism-based; design: dose 10 mg/kg, route oral
[26] = AUClast in CD1 mouse plasma at 10 mg/kg, po administered as single dose by LC-MS/MS analysis; assay type: ADME, organism-based; design: dose 10 mg/kg, route oral, time 0 - last
[27] = AUClast in CD1 mouse plasma at 2 mg/kg, iv administered as single dose by LC-MS/MS analysis; assay type: ADME, organism-based; design: dose 2 mg/kg, route intravenous, time 0 - last
[28] = Cmax in CD1 mouse lung at 10 mg/kg, po administered as single dose by LC-MS/MS analysis; assay type: ADME, organism-based; design: dose 10 mg/kg, route oral
[29] = AUClast in CD1 mouse lung at 10 mg/kg, po administered as single dose by LC-MS/MS analysis; assay type: ADME, organism-based; settings: in vivo
[30] = Ratio of Cmax in CD1 mouse lung to plasma at 10 mg/kg, po administered as single dose by LC-MS/MS analysis; assay type: ADME, organism-based; settings: lung and plasma
[31] = Ratio of AUClast in CD1 mouse lung to plasma at 10 mg/kg, po administered as single dose by LC-MS/MS analysis; assay type: ADME, organism-based; settings: lung and plasma, read-out: Ratio AUC
[32] = Stability in simulated gastric fluid assessed as parent compound remaining at 1 uM measured after 4 hrs at pH 1.2 by LC-MS/MS analysis; assay type: physicochemical; settings: read-out: Stability
[33] = Stability in simulated intestinal fluid assessed as parent compound remaining at 1 uM measured after 4 hrs at pH 1.2 by LC-MS/MS analysis; assay type: physicochemical; settings: read-out: Stability
[34] = Stability in human plasma assessed as parent compound remaining at 1 uM measured after 4 hrs by LC-MS/MS analysis; assay type: ADME, cell-free; settings: read-out: Stability
[35] = Stability in human liver S9 fraction assessed as parent compound remaining at 1 uM measured after 4 hrs by LC-MS/MS analysis; assay type: ADME, subcellular; settings: read-out: Stability
[36] = Stability in rat plasma assessed as parent compound remaining at 1 uM measured after 4 hrs by LC-MS/MS analysis; assay type: ADME, cell-free; settings: read-out: Stability
[37] = Stability in rat liver S9 fraction assessed as parent compound remaining at 1 uM measured after 4 hrs by LC-MS/MS analysis; assay type: ADME, subcellular; settings: read-out: Stability
[38] = Stability in mouse plasma assessed as parent compound remaining at 1 uM measured after 4 hrs by LC-MS/MS analysis; assay type: ADME, cell-free; settings: read-out: Stability
[39] = Stability in mouse liver S9 fraction assessed as parent compound remaining at 1 uM measured after 4 hrs by LC-MS/MS analysis; assay type: ADME, subcellular; settings: read-out: Stability
[40] = Protein binding in human plasma at 1 uM measured after 4 hrs by LC-MS/MS analysis; assay type: ADME, cell-free; settings: read-out: PPB (converted)
[41] = Protein binding in rat plasma at 1 uM measured after 4 hrs by LC-MS/MS analysis; assay type: ADME, cell-free; settings: read-out: PPB (converted)
[42] = Protein binding in mouse plasma at 1 uM measured after 4 hrs by LC-MS/MS analysis; assay type: ADME, cell-free; settings: read-out: PPB (converted)
[43] = test system: Influenza A virus; test: (§2) Antiviral activity against Influenza A/California/04/2009 (H1N1)pdm09 infected in specific pathogen-free BALB/c mouse assessed as protection against virus-induced mouse death at 50 mg/kg, po administered via gavage immediately after infection and at 12 hrs post-infection measured on 16 days post-infection relative to control; assay type: functional
[44] = test system: Influenza A virus; test: as §2, with “20” for “50”; assay type: functional
[45] = Toxicity in Influenza A/California/04/2009 (H1N1)pdm09 infected specific pathogen-free BALB/c mouse assessed as reduction in body weight at 20 to 50 mg/kg, po administered via gavage immediately after infection and at 12 hrs post-infection measured on 10 days post-infection; assay type: organism-based; settings: in vivo, 240 h
[46] = Toxicity in Influenza A/California/04/2009 (H1N1)pdm09 infected specific pathogen-free BALB/c mouse assessed as effect on body weight at 20 to 50 mg/kg, po administered via gavage immediately after infection and at 12 hrs post-infection measured after 10 days post-infection; assay type: organism-based; settings: in vivo, 240 h
[47] = test system: Influenza A virus; test: Antiviral activity against Influenza A/California/04/2009 (H1N1)pdm09 infected in specific pathogen-free BALB/c mouse assessed as reduction in virus titre in lung at 20 mg/kg, po administered via gavage immediately after infection and at 12 hrs post-infection measured 24 hrs post-infection; assay type: functional, organism-based

Sequence of dopamine transporter (sodium-dependent dopamine transporter) (Q01959 whole entry): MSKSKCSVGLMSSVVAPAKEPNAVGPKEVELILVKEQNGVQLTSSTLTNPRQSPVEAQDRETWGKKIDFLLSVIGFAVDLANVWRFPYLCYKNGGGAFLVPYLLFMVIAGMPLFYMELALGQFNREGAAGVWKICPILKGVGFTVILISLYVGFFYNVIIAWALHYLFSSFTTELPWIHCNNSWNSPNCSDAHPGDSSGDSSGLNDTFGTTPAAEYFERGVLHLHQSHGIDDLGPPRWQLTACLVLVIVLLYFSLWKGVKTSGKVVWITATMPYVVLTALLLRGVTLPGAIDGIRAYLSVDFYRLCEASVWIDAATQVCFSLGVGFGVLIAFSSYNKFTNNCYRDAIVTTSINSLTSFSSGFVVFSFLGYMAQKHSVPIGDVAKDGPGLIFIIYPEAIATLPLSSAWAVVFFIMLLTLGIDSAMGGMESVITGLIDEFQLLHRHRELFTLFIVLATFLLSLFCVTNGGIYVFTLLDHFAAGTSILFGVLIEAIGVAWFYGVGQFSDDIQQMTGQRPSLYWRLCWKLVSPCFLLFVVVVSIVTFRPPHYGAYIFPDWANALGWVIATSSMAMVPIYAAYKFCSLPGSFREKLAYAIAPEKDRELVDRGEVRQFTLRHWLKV

## COC(=O)OCOc1c2n(ccc1=O)N([C@H](c1ccccc1)c1ccc(F)c(F)c1)[C@@H]1COCCN1C2=O
[1]
  F: 56.9%
[2]
  Cmax: 2.09 µg/mL
[3]
  AUClast: 9.448 µg·h/mL
[4]
  Cmax: 4464 ng/g
[5]
  AUClast: 30130 ng·h/g
[6]
  Ratio: 2.1
[7]
  Ratio AUC: 3.2

## O=C1c2c(O)c(=O)ccn2N(C(c2ccccc2)c2ccccc2)[C@@H]2COCCN12
[8]
  inhibition: 70%
[9]
  inhibition: 17.8%
[10]
  EC50: 0.0185 µM
[11]
  CC50: 12.1 µM
[12]
  selectivity ratio: 654
[13]
  EC50: 0.0036 to 0.0125 µM
[14]
  EC50: 0.0036 to 0.0125 µM
[15]
  EC50: 5.1 to 28.3 µM
[16]
  EC50: 5.1 to 28.3 µM
[17]
  CC50: > 100 µM
[18]
  CC50: 21 µM
[19]
  CC50: 5.8 µM
[20]
  CC50 at 24 h: 20 µM
[21]
  CC50 at 24 h: 18 µM
[22]
  selectivity ratio at 24 h: 1.1
[23]
  activity at 10 µM: 71.7%
[24]
  bioavailability: 38.2%
[25]
  Cmax: 1.66 µg/mL
[26]
  AUC(0-t): 2.42 µg·h/mL
[27]
  AUC(0-t): 0.844 µg·h/mL
[28]
  Cmax: 3720 ng/g
[29]
  AUClast: 7477 ng·h/g
[30]
  Kp: 2.2
[31]
  Kp: 3.1
[32]
  remaining at 4 h, 1 µM: 96%
[33]
  remaining at 4 h, 1 µM: 89.3%
[34]
  remaining at 4 h, 1 µM: 63.2%
[35]
  remaining at 4 h, 1 µM: 82.8%
[36]
  remaining at 4 h, 1 µM: 71.4%
[37]
  remaining at 4 h, 1 µM: 79%
[38]
  remaining at 4 h, 1 µM: 70.1%
[39]
  remaining at 4 h, 1 µM: 97.1%
[40]
  fraction unbound at 4 h, 1 µM: 0.033
[41]
  fraction unbound at 4 h, 1 µM: 0.193
[42]
  fraction unbound at 4 h, 1 µM: 0.138
[43]
  Activity: 60%
[44]
  Activity: 80%
[45]
  Activity: Toxic
[46]
  Activity: Non-Toxic
[47]
  Activity: Active
